IC50 data for 90 molecules are collected here from PubChem BioAssay AID1159558 (GlaxoSmithKline (GSK), 2015).

Molecules are shown by their SMILES. Activity calls are given as the source filed them.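 The calls were made as follows: active = IC50 against T. cruzi CYP51 below a set limit; inactive = the rest.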

The target of this experiment is Sterol 14-alpha demethylase (Trypanosoma cruzi (strain CL Brener)) (UniProt Q7Z1V1). Briefly: T. cruzi sterol 14-alpha demethylase inhibition – biochemical, recombinant enzyme, mechanism study for T. cruzi antiparasitic project, dose response (AID 1159558).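 Also: enzyme in bacterial membranes with Anopheles gambiae CYP reductase and cytochrome b5 partners.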 The conditions noted are these: recombinant T. cruzi CYP51, BOMCC fluorescence.
Chain of Sterol 14-alpha demethylase (Trypanosoma cruzi (strain CL Brener)) (Q7Z1V1 whole entry, looked up): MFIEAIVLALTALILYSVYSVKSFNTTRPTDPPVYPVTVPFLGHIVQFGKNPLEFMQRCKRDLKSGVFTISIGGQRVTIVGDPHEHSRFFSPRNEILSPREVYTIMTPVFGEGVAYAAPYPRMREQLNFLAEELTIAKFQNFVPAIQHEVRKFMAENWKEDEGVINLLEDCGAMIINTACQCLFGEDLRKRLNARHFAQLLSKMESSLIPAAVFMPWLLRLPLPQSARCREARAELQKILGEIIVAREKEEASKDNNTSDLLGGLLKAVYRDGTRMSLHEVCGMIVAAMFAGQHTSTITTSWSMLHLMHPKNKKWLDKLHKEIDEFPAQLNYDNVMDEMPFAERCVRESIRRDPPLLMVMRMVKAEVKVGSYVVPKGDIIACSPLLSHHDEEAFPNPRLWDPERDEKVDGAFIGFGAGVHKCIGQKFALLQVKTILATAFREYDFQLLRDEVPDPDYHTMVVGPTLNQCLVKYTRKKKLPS
Regarding `O=C(Nc1cccc(Cl)c1)Nc1ccc([N+](=O)[O-])cc1Cl`, the IC50 is 5 µM. Take `CCOC(=O)c1cn[nH]c1S(=O)(=O)N1CCC1c1ccccc1` (stereo not given): the half-inhibitory concentration (IC50) was 50 µM. To `Fc1ccc(Nc2nc(-c3ccccn3)cs2)cc1` belongs 16 µM; to `Cc1ccc(CNC2CCN(C[C@@H]3Cn4c(=O)ccc5ccc(=O)n3c54)CC2)cc1F`, > 100 µM (inactive); to `CN(C)c1ccc(N)cc1CN(CC1CCCO1)S(C)(=O)=O` (stereo not given), > 100 µM (inactive). For `N#Cc1ccc(S(=O)(=O)N2CCC3(CCN(c4ccccc4)C3=O)CC2)cc1` the value was > 100 µM (inactive). In the case of `O=C(NCCc1cccnc1)c1csc(-c2ccccc2)n1`, the IC50 was 0.063 µM. With `O=c1cc(NCCCNCc2cc(C(F)(F)F)cs2)[nH]c2ccccc12`, the IC50 was 25 µM. For `COc1ccc(S(=O)(=O)NCc2ccc(-c3ccc(CN(C)CCO)cc3)cc2)cc1` the value was 16 µM; for `Cc1nn(-c2ccccc2)nc1CNC(=O)CN(Cc1ccccn1)Cc1ccccn1`, 25 µM.

In the case of `Cc1nn2c(NCCCO)c3c(nc2c1-c1cccs1)CCC3`, the IC50 was 25 µM. To `O=C(NCC(c1cccnc1)N1CCc2ccccc2C1)C(=O)Nc1cccc(Cl)c1` (stereo not given) belongs 0.063 µM; to `O=C(c1ccc(O)c(Cl)c1)N1CCN(c2cnccn2)CC1`, > 100 µM (inactive); to `Clc1ccc(CN2CCN(C3=NCCN3)CC2)cc1Cl`, > 100 µM (inactive).

As to `O=C(CN1CCC2(O)CCCCC2C1c1ccc2c(c1)OCO2)Nc1ccc(Cl)cc1Cl` (stereo not given), the IC50 is 13 µM. To `O=C(NNC(=O)c1ccccn1)c1ccc(-c2ccccc2)cc1` belongs 32 µM; to `CCCCn1nnnc1CSc1nc(C)cc(C)c1C#N`, 50 µM; to `O=C(Nc1nc2ccccc2[nH]1)c1ccc2nc[nH]c2c1`, 5 µM. Take `Cc1occc1C(=O)Nc1ccccc1C(=O)Nc1nccs1`: the IC50 is > 100 µM (inactive). For `COc1ccc(OC)c2c(=O)c(Cc3ccccc3)c(C)[nH]c12` the value was > 100 µM (inactive). For `CCCn1c(NC(=O)CCn2cc(Br)cn2)nc2ccccc21`, the IC50 is 10 µM. In the case of `Cc1cc(N2CCc3ccccc3C2)nc(Nc2ccc(S(=O)(=O)N3CCOCC3)cc2)n1`, the IC50 is > 100 µM (inactive). To `CCCCCNC(=O)c1c[nH]c2ccc(S(=O)(=O)N(C)c3ccc(OCC)cc3)cc2c1=O` belongs 1.6 µM; to `O=C(Nc1nc(-c2ccc(F)cc2)cs1)c1ccc([N+](=O)[O-])s1`, 50 µM. As to `COc1ccc2nccc([C@H](O)CN3CC[C@H](NC(=O)c4ccc(Br)cc4)[C@@H](O)C3)c2n1`, the IC50 is 6.3 µM. To `CC(C)(C)Nc1nc(Nc2ccc3c(c2)CS(=O)(=O)C3)nc2[nH]ccc12` belongs 25 µM; to `CCN(CC)S(=O)(=O)c1ccc(OC)c(NC(=O)c2ccc([N+](=O)[O-])s2)c1`, 32 µM; to `Cc1ccc(NC(=O)C(C)n2nc([N+](=O)[O-])c(Br)c2C)cc1Cl` (stereo not given), > 100 µM (inactive). On to `O=c1[nH]c(C=Cc2cccc(OCCOc3ccccc3)c2)nc(O)c1[N+](=O)[O-]`, for which the IC50 is > 100 µM (inactive). For `COc1ncc(-c2ccc3nccc(-c4ccncc4)c3c2)cc1NS(=O)(=O)C1CC1` the value was 7.9 µM; for `NC(=O)c1cc(NC(=O)c2ccccc2COc2ccccc2)ccc1Cl`, 79 µM.

Take `CC(C)(C)C(=O)Nc1cc(C2CC2)nn1-c1nc2c(c(=O)[nH]1)CCCC2`: the IC50 was > 100 µM (inactive). For `OCCCNc1nc(Nc2ccncc2)nc2ccccc12` the value was > 100 µM (inactive); for `COc1ccc(NC(=O)c2ccc(NC(=O)CN(c3ccccc3C)S(C)(=O)=O)cc2)cc1`, 6.3 µM. To `N#Cc1ccccc1S(=O)(=O)N1CCN(C(=O)CNC(=O)c2ccc3c(c2)OCO3)CC1` belongs 79 µM. For `CC(C)S(=O)(=O)c1ccc(-c2cnc(N)c3cc(-c4ccnc(N)n4)ccc23)cc1` the value was 16 µM; for `COc1ccc(C)cc1-c1csc(NC(=O)C(C)n2ccnc2)n1` (stereo not given), 0.04 µM. Turning to `CCc1c(C)nc(-n2nc(C)cc2NC(=O)COc2ccccc2F)[nH]c1=O`, the IC50 was > 100 µM (inactive). To `Cn1c(CN2CCN(c3ncc(C(F)(F)F)cc3Cl)CC2)nc2ccncc21` belongs 0.079 µM.

On to `O=C(CCCn1cnc([N+](=O)[O-])n1)Nc1cccc(Cl)c1`, for which the IC50 was 50 µM. For `O=c1cc(NCCCNCc2c[nH]c3ccc(Br)cc23)[nH]c2ccccc12` the value was > 100 µM (inactive); for `Cc1c(C#N)c([N+](=O)[O-])nn1Cc1cccc(Cl)c1Cl`, > 100 µM (inactive).

Turning to `O=C(NCCNc1noc(-c2ccc([N+](=O)[O-])cc2)n1)c1ccc(Cl)cc1`, the IC50 is > 100 µM (inactive). `CC(=O)Nc1ccc(Nc2nccc(-c3cnn4ncccc34)n2)cc1C(F)(F)F`: the IC50 was 32 µM.

As for `Cc1ccc(C)c(CN2C(=O)NC3(CCc4ccccc43)C2=O)c1` (stereo not given), the IC50 was 40 µM. For `Cc1c(C(=O)NCCCCn2ccnc2)oc2c(C)cccc12` the value was 0.1 µM; for `COc1ncc(-c2ccc3nccc(-c4ccncc4)c3c2)cc1NS(C)(=O)=O`, 79 µM; for `Cn1nc(-c2ccc(NC(=O)Cc3ccccc3Cl)cc2)c2c(N)ncnc21`, 63 µM. To `Cc1nc(C(=O)Nc2ccc3c(c2)OCO3)nn1-c1ccc(F)cc1` belongs 40 µM; to `CCOc1ccc(CC(=O)N2c3ccccc3CC2C(=O)NC)cc1` (stereo not given), > 100 µM (inactive). To `NC(=O)c1cc(F)ccc1Nc1nc(NC2CCC(O)CC2)ncc1Br` (stereo not given) belongs 10 µM.

For `Cc1cccnc1CN1CCN(CCCOc2ccc(-c3ccc(C(N)=O)cc3)cc2)CC1`, the IC50 is > 100 µM (inactive). Consider `CN(C)S(=O)(=O)c1cccc(C(=O)Nc2nc(-c3ccccn3)cs2)c1`, for which the IC50 was 32 µM. For `Cc1ccc(S(=O)(=O)Nc2ccc(CN3CCN(C(=O)c4cccc(C#N)c4)CC3)cc2)cc1` the value was > 100 µM (inactive). With `CC(C)(C)CC(=O)NCc1noc(COc2ccccc2)n1`, the IC50 is 50 µM. To `O=C(Nc1nc2cc(Cl)ccc2o1)c1cccc(Cl)c1` belongs > 100 µM (inactive); to `Cc1[nH]n2c(=O)c3c(nc2c1-c1ccc(F)cc1)CCCC3`, > 100 µM (inactive). To `O=C(c1cccc(Cl)c1Cl)N1CCn2c1nc(-c1ccncc1)cc2=O` belongs 0.063 µM; to `Fc1ccc(OC2CC(NCc3cccc4cn[nH]c34)C2)cc1C(F)(F)F` (stereo not given), 0.13 µM; to `O=C(O)[C@H]1C[C@@H]1c1ccc(-c2ccc(CN(CCc3ccccn3)C(=O)C3CCC3)cc2)cc1`, 20 µM. To `Cc1cc(N(C)C)nc(Nc2ccccc2C)n1` belongs > 100 µM (inactive); to `O=C(COc1nn(-c2ccccc2)c2ncccc12)NCc1ccccc1`, 6.3 µM; to `COc1ccc(C2CC(c3ccccc3Cl)=NN2C(=O)CNC(=O)C2CCC2)cc1` (stereo not given), 50 µM. Regarding `Cc1cc2nc(N3CC[C@H]3C(N)=O)nc(Nc3cc(C4CC4)[nH]n3)c2s1`, the IC50 was > 100 µM (inactive). To `COc1ccc(C2CC(c3ccc(NS(C)(=O)=O)cc3)=NN2C(=O)c2cccs2)cc1OC` (stereo not given) belongs 13 µM; to `Cc1ccc2c(c1)SC(C(=O)Nc1n[nH]c(-c3ccccn3)n1)C2` (stereo not given), > 100 µM (inactive); to `COc1ccc(S(=O)(=O)Nc2ccc(C(=O)Nc3nc(-c4ccccn4)cs3)cc2)cc1`, 0.4 µM. To `Cc1cc(-c2cccc3ccccc23)nc2nc(N)nc(N)c12` belongs > 100 µM (inactive); to `O=C(C1CCCCC1)N1CCN(c2nnc(-c3ccccc3)c3ccccc23)CC1`, > 100 µM (inactive); to `CS(=O)(=O)c1ccccc1C(=O)N(Cc1ccccc1)c1ccccc1`, 20 µM. With `COc1ccccc1C=CCN1C[C@H]2CCC[C@@H](C1)C2(O)c1cccnc1` (stereo not given in full), the IC50 is 0.13 µM.

For the molecule `COc1cc(F)c2ncc(F)c(CCN3CC[C@H](NCc4cc5c(cn4)OCS5)[C@@H](O)C3)c2c1`, the IC50 is 32 µM. To `CN(C)CCN(C)Cc1ccc(Cl)cc1NS(=O)(=O)c1ccc(Cl)c(Cl)c1` belongs 32 µM; to `CCOc1ccc(NC(=O)C=Cc2ccc(CC)o2)cc1`, > 100 µM (inactive). To `COc1ccc(CNc2cc(C3CC3)nc(-c3nccn3C)n2)cc1` belongs 5 µM. Turning to `OC1CCC(Nc2nccc(-c3sc(C4CCOCC4)nc3-c3ccc(F)c(F)c3)n2)CC1` (stereo not given), the IC50 is > 100 µM (inactive). For `CCCNC(=O)Nc1cccc(-c2nc3ncccc3o2)c1` the value was > 100 µM (inactive); for `CC1CN(Cc2ccc(C#N)cc2)CCN1c1ccc(NC(=O)c2ccccc2F)cc1` (stereo not given), 32 µM. On to `Cc1cc(N(C)C)nc2ccc(Cc3cnc(N)nc3N)cc12`, for which the IC50 is > 100 µM (inactive).

With `C[C@@H](Oc1cc(-n2cnc3ccc(CC(O)CO)cc32)sc1C(N)=O)c1ccccc1Cl` (stereo not given in full), the concentration for half-maximal inhibition (IC50) was 25 µM. To `CCC(=O)Nc1ccc(-c2nc3ccc(Cl)cc3[nH]2)cc1` belongs > 100 µM (inactive). To `O=c1ccn(-c2ccc([N+](=O)[O-])cc2Cl)c2ccc(F)cc12` belongs 16 µM; to `COCc1cnc2c(c1SCc1c(F)cccc1Cl)c(=O)n(C)c(=O)n2C`, 25 µM; to `Cc1cc(Oc2cc(Cl)c(Cl)cc2Cl)n2ncnc2n1`, > 100 µM (inactive).

In the case of `COc1cc(C2SCC(=O)Nc3c2c(C)nn3-c2nc3ccccc3s2)cc(OC)c1O` (stereo not given), the IC50 is 5 µM. For `CN(C)CCN(C)Cc1ccc(F)cc1NS(=O)(=O)c1ccc(Cl)c(Cl)c1` the value was > 130 µM (inactive); for `O=C1CN(Cc2ccco2)C2CS(=O)(=O)CC2N1c1ccc(Cl)cc1` (stereo not given), > 100 µM (inactive); for `O=C(NCc1ccc(-n2cccc2)cc1)c1nc(Cn2ccc([N+](=O)[O-])n2)no1`, > 100 µM (inactive). For `CS(=O)(=O)c1cccc(CNC(=O)c2cncc(N3CCN(c4ccc(F)cc4)CC3)c2)c1` the value was 13 µM; for `CN(C)Cc1ccc(N2CCC(NS(=O)(=O)c3ccc(Cl)cc3)CC2)cc1`, > 100 µM (inactive).

Broadly, the IC50 is the concentration that inhibits the measured activity by half.
